The record followed here is patent US20150174021A1, “COSMETIC COMPOSITION COMPRISING BENZYLSULFONYL-D-SER-HOMOPHE-(4-AMIDINO-BENZYLAMIDE) AND A POLYALCOHOL” (DSM IP ASSETS B.V., priority 2012, published 2015).

One test deals with human plasmin (Homo sapiens, UniProt P00747). The experiment in a line: Inhibition of human plasmin, chromogenic substrate Tos-Gly-Pro-Lys-pNA, Ki according to Dixon. The class given is biochemical. On the procedure:
The measurements were carried out on a microplate reader at 25′C.
(§1) The measurements were carried out on a microplate reader at 25° C. […] The Ki-values for the respective inhibitors were calculated according to Dixon34 using a linear regression proaram. Bz-βAla-Gly-Arg-pNA was used as the substrate for human uPA and Tos-Gly-Pro-Lys-pNA for human plasmin.

The target in another test is human uPA (Homo sapiens, UniProt P00749). Briefly: Inhibition of human uPA (urokinase), chromogenic substrate Bz-βAla-Gly-Arg-pNA, Ki according to Dixon. The class given is biochemical. How it is done: The measurements were carried out on a microplate reader at 25° C.
as §1

[1] abbreviates: comparative inhibitor compositions, 0.1% inhibitor and 99.9% of glycerine 86%, 25° C., pH 8.0, Dixon, read-out: Ki for plasmin inhibition.

Read-outs that look alike come from different tables or passages of the source.

human plasmin, sequence (P00747 581-810 limits assumed): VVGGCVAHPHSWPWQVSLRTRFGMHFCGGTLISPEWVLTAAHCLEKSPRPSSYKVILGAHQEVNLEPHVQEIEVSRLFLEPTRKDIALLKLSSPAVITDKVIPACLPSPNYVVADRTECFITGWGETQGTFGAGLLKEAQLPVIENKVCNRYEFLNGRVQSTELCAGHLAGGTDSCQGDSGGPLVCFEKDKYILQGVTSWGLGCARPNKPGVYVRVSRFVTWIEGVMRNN
human plasmin, sequence (P00747 97-580 partner limits assumed): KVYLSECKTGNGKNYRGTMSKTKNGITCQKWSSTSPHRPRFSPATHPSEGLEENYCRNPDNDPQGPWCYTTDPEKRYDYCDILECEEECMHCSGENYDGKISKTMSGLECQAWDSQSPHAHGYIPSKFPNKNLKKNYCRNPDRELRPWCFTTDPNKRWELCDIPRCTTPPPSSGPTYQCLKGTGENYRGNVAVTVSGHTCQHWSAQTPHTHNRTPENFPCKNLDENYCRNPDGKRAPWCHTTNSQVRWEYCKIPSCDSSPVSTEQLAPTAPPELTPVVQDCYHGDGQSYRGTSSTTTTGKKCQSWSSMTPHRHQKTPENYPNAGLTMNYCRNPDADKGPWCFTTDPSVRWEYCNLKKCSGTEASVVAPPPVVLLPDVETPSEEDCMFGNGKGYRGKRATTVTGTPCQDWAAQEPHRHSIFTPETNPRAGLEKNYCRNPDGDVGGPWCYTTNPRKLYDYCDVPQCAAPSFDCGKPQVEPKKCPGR

For the compound `N=C(N)c1ccc(CNC(=O)CNC(=O)[C@@H](CO)NS(=O)(=O)Cc2ccccc2)cc1` [Benzylsulfonyl-D-Ser-Gly-(4-amidino-benzylamide)], the Ki at human plasmin (setting [1]) turned out to be 11000 nM. In the case of `N=C(N)c1ccc(CNC(=O)C(CCc2ccccc2)NC(=O)C(CO)NS(=O)(=O)Cc2ccccc2)cc1` [benzylsulfonyl-D-Ser-homoPhe-(4-amidino-benzylamide)], the figures for the Ki on human uPA and on human plasmin were 28 nM and 36 nM, respectively. For the same compound, the “Ki for plasmin inhibition compared to 3 other 4-amidino benzylamines” value on human plasmin (compared to the Gly, Ala and Lys analogues of WO2009/026949) is recorded as “an order of magnitude better”. Take `CC(NC(=O)C(CO)NS(=O)(=O)Cc1ccccc1)C(=O)NCc1ccc(C(=N)N)cc1` [Benzylsulfonyl-D-Ser-Ala-(4-amidino-benzylamide)]: the Ki on human plasmin (setting [1]) was 540 nM. With `N=C(N)c1ccc(CNC(=O)C(CCCCN)NC(=O)C(CO)NS(=O)(=O)Cc2ccccc2)cc1` [Benzylsulfonyl-D-Ser-Lys-(4-amidino-benzylamide), reference compound], the Ki on human uPA (comparative inhibitor compositions, 0.1% inhibitor and 99.9% of glycerine 86%, 25° C., pH 8.0, Dixon, read-out: Ki for uPA inhibition) stood at 24 nM; on human plasmin (setting [1]), 360 nM.

Usually Ki stands for a dissociation constant, usually derived from enzyme kinetics or from competition with a known ligand.
